Some results are limits rather than exact numbers.

Common to all, as to assay: EC50 assay: Ba/F3 stable cell proliferation (CCK-8, 72 h)
Holding throughout (format): cell-based

The target in test [1] is T1, Ba/F3 stable cells (Homo sapiens, UniProt P00533, DUP767-769, cells depend on it).
T1 construct: EC50 Ba/F3-EGFR V769-D770insASV; other: Ba/F3-EGFR V769-D770insASV cells, 72 h, CCK-8
The note with it: Ba/F3-EGFR V769-D770insASV cells. Here is the method:
(§1) 4,000 Ba/F3 stable cells/90 μL/well were plated onto 96-well cell culture plate (Grenier, Cat.No. 655180) and incubated at 37° C. with a humidified atmosphere of 5% CO2 for 2 h. Then the cells were treated with 10 μL compounds at serial titration. The final DMSO concentration is 0.1%. The cells treated with 0.1% DMSO (Vetec, Cat.No.V900090) as a positive control (Max), and medium with 0.1% DMSO was as a negative control (Min). Incubated the cells at 37° C. for 72 h. 10 μL the cell proliferation reagent CCK-8 (Dojindo, Cat.No. CK04 1000T) was added into each well and incubated the plate at 37° C. for 4 hours, the GD value was measured by SPECTRAmax plus (Molecular Devices) at 450 nm. Data processing with Graphpad 7.0.

Test [2] deals with T2, Ba/F3 stable cells (Homo sapiens, UniProt P00533, DUP768-770, cells depend on it).
T2 construct: EC50 Ba/F3-EGFR D770-N771insSVD; other: Ba/F3-EGFR D770-N771insSVD cells, 72 h, CCK-8
T2 sequence (P00533 with tags, fused parts or gaps DUP768-770): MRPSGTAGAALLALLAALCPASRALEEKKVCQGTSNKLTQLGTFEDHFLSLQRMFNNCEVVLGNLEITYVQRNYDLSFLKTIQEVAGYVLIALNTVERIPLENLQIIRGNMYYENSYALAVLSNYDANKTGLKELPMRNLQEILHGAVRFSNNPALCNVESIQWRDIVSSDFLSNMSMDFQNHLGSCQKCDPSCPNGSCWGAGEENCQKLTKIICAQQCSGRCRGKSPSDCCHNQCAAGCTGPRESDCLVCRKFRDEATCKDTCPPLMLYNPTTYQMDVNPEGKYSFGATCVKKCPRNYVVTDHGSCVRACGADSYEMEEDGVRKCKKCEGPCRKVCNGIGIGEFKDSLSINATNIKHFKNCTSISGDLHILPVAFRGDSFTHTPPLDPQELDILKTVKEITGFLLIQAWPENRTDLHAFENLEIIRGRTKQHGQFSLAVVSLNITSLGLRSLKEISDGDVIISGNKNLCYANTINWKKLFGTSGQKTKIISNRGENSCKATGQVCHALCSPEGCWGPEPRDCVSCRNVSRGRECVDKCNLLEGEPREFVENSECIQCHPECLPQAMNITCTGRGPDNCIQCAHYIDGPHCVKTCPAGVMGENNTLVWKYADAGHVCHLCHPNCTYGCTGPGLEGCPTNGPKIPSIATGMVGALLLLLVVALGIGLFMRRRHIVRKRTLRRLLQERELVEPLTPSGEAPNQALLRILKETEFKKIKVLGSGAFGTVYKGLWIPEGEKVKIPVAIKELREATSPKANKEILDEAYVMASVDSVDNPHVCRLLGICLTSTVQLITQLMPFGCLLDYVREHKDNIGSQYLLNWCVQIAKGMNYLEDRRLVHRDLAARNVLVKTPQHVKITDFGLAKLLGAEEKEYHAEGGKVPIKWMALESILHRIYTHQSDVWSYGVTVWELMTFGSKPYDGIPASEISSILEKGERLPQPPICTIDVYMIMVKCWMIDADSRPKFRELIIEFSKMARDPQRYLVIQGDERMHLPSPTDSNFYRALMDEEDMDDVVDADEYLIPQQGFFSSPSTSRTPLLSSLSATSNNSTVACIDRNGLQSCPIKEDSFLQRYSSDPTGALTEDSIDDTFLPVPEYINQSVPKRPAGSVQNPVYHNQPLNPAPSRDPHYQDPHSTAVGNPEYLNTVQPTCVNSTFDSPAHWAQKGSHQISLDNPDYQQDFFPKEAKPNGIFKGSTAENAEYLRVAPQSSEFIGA
As to conditions: Ba/F3-EGFR D770-N771insSVD cells. The method, then: as §1

Test [3] has as its target T3, Ba/F3 stable cells (Homo sapiens, UniProt P04626, DUP772-775, cells depend on it).
T3 construct: EC50 Ba/F3-HER2 A775-G776insYVMA; other: Ba/F3-HER2 A775-G776insYVMA cells, 72 h, CCK-8
The note with it: Ba/F3-HER2 A775-G776insYVMA cells. Here is the method:
as §1

The target in test [4] is T4, Ba/F3 stable cells (Homo sapiens, UniProt P00533, T790M/L858R, cells depend on it).
T4 construct: EC50 Ba/F3-EGFR L858R-T790M; other: Ba/F3-EGFR L858R-T790M cells, 72 h, CCK-8
T4 sequence (P00533 whole entry T790M/L858R): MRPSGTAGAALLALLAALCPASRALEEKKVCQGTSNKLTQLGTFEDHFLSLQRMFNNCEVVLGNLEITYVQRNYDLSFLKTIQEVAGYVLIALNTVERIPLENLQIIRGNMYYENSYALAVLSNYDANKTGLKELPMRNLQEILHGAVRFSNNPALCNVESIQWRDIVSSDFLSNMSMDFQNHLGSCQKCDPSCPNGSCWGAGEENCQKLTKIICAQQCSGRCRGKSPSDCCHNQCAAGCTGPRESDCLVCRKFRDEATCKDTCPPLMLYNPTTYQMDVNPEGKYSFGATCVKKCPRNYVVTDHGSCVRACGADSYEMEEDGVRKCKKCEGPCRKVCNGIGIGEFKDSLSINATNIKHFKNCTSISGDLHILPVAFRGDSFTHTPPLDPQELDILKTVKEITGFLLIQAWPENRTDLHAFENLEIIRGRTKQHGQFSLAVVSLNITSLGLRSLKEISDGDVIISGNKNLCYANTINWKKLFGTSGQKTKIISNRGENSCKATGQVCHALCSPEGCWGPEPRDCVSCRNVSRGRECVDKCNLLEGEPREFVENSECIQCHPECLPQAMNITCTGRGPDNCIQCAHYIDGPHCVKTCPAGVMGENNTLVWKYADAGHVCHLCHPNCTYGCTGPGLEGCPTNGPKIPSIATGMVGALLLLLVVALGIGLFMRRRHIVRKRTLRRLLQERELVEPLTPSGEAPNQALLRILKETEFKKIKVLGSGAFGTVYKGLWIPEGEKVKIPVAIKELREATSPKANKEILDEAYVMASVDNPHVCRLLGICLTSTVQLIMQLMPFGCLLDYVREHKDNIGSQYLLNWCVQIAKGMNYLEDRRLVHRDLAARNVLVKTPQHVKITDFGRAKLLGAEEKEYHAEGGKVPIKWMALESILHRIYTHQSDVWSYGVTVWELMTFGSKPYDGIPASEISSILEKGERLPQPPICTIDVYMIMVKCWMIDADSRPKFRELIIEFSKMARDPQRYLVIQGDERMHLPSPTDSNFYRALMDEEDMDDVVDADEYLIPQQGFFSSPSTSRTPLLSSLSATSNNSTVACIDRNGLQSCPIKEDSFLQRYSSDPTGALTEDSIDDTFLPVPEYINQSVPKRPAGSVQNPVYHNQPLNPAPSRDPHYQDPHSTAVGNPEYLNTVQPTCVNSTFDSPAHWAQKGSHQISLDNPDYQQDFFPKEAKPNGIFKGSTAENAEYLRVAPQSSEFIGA
The note with it: Ba/F3-EGFR L858R-T790M cells. Here is the method: as §1

Test [5] has as its target T5, Ba/F3 stable cells (Homo sapiens, UniProt P00533, DUP771-773, cells depend on it).
T5 construct: EC50 Ba/F3-EGFR H773-V774insNPH; other: Ba/F3-EGFR H773-V774insNPH cells, 72 h, CCK-8
The note with it: Ba/F3-EGFR H773-V774insNPH cells. Here is the method: as §1

The target in test [6] is T6, Ba/F3 stable cells (Homo sapiens, UniProt P00533, INS763FQEA, cells depend on it).
T6 construct: EC50 Ba/F3-EGFR A763-Y764insFQEA; other: Ba/F3-EGFR A763-Y764insFQEA cells, 72 h, CCK-8
T6 sequence (P00533 with tags, fused parts or gaps INS763FQEA): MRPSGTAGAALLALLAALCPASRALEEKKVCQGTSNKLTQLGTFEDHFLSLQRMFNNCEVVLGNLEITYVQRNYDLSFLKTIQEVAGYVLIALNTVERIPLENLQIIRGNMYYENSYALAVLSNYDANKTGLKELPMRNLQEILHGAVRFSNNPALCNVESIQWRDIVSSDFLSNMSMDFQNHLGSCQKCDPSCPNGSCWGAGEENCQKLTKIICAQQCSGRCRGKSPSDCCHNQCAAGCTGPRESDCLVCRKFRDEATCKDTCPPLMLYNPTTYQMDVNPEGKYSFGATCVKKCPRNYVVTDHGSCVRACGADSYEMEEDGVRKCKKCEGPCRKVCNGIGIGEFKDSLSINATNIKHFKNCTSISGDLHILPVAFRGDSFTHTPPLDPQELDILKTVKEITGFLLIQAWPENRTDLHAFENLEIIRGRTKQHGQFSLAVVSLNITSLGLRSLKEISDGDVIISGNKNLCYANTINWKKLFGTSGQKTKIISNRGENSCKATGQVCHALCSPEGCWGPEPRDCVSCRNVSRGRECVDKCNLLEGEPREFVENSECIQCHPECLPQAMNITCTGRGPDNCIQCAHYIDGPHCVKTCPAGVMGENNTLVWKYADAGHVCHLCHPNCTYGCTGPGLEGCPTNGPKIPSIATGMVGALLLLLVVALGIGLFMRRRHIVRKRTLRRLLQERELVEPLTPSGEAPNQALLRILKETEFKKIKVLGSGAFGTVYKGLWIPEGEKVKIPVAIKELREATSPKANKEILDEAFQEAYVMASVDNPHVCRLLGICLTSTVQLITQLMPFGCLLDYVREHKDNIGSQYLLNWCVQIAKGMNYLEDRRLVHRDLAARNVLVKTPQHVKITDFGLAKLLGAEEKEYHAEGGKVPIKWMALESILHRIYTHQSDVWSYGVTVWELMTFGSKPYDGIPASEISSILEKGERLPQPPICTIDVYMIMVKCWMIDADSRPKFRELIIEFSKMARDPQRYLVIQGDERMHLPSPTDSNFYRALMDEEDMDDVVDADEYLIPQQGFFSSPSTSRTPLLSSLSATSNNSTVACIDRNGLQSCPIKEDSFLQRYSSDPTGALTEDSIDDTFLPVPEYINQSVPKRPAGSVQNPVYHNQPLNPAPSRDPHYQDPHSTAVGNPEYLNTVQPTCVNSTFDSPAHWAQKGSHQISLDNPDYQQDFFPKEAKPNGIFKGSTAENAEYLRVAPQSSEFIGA
As to conditions: Ba/F3-EGFR A763-Y764insFQEA cells. The method, then:
as §1

T1 sequence (P00533 with tags, fused parts or gaps DUP767-769): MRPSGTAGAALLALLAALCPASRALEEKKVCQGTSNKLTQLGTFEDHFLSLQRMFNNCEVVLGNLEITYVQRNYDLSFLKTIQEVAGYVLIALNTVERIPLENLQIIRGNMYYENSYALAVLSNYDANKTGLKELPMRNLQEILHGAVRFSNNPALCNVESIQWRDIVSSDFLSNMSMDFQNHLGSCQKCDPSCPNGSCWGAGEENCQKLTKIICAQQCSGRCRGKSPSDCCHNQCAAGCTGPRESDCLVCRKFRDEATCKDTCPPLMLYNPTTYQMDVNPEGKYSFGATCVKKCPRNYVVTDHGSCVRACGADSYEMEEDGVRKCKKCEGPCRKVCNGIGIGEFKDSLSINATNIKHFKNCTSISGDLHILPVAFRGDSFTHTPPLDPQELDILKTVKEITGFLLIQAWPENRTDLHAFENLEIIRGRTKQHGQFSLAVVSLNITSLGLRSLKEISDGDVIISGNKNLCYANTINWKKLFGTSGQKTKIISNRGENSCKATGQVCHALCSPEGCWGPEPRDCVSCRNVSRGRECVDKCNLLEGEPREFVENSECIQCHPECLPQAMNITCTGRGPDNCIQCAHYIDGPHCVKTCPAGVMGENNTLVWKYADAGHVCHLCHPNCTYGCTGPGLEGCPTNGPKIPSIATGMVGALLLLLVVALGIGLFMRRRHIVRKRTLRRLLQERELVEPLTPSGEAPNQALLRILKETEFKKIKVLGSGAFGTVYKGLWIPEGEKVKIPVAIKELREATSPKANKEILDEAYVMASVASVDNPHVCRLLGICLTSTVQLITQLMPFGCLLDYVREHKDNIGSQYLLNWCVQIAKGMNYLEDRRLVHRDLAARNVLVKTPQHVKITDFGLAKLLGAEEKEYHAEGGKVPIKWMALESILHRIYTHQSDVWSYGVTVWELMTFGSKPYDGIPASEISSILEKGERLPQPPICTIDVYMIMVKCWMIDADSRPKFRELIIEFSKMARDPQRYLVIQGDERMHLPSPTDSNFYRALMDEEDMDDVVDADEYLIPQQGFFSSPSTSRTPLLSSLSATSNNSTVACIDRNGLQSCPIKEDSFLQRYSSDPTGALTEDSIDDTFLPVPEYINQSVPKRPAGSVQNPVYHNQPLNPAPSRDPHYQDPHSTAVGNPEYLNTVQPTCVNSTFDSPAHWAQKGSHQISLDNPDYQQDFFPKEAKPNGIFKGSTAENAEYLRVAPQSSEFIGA

For `C=CC(=O)N1CC(c2cc3c(Nc4ccc(Cl)c(Cl)c4F)ncnc3cc2OC)C1` [Compound 1, 1-(3-(4-((3,4-dichloro-2-fluorophenyl)amino)-7-methoxyquinazolin-6-yl)azetidin-1-yl)prop-2-en-1-one], the EC50 at Ba/F3 stable cells [1], on Ba/F3 stable cells [2], at Ba/F3 stable cells [3], at Ba/F3 stable cells [4], at Ba/F3 stable cells [5] and at Ba/F3 stable cells [6] was ≤ 200 nM each time.

Consider `C=CC(=O)N1CC(c2cc3c(Nc4ccc(OCc5ccccc5)c(Cl)c4F)ncnc3cc2OC)C1` [Compound 2, 1-(3-(4-((4-(benzyloxy)-3-chloro-2-fluorophenyl)amino)-7-methoxyquinazolin-6-yl)azetidin-1-yl)prop-2-en-1-one], for which the half-maximal effective concentration (EC50) at Ba/F3 stable cells [1], on Ba/F3 stable cells [2], on Ba/F3 stable cells [3], at Ba/F3 stable cells [4], at Ba/F3 stable cells [5] and on Ba/F3 stable cells [6] was > 1000 nM in each case.

As to `C=CC(=O)N1CCC(c2cc3c(Nc4ccc(Cl)c(Cl)c4F)ncnc3cc2OC)C1` (centres unmarked) [Compound 3, 1-(3-(4-((3,4-dichloro-2-fluorophenyl)amino)-7-methoxyquinazolin-6-yl)pyrrolidin-1-yl)prop-2-en-1-one], the concentration for a half-maximal effect (EC50) at Ba/F3 stable cells [1] is ≤ 200 nM; on Ba/F3 stable cells [2] it was ≤ 200 nM; on Ba/F3 stable cells [3], ≤ 200 nM; at Ba/F3 stable cells [4], 200 to 1000 nM; on Ba/F3 stable cells [5], ≤ 200 nM; on Ba/F3 stable cells [6], ≤ 200 nM.

On to `C=CC(=O)N1CC(c2cc3c(Nc4cccc5ccccc45)ncnc3cc2OC)C1` [Compound 4, 1-(3-(7-methoxy-4-(naphthalen-1-ylamino)quinazolin-6-yl)azetidin-1-yl)prop-2-en-1-one], for which the concentration for a half-maximal effect (EC50) on Ba/F3 stable cells [1] was ≤ 200 nM; at Ba/F3 stable cells [2], 200 to 1000 nM; at Ba/F3 stable cells [3], ≤ 200 nM; on Ba/F3 stable cells [4], 200 to 1000 nM; at Ba/F3 stable cells [5], ≤ 200 nM; at Ba/F3 stable cells [6] it was ≤ 200 nM.

In the case of `C=CC(=O)N1CC(c2cc3c(Nc4ccc5ccccc5c4)ncnc3cc2OC)C1` [Compound 5, 1-(3-(7-methoxy-4-(naphthalen-2-ylamino)quinazolin-6-yl)azetidin-1-yl)prop-2-en-1-one], the EC50 on Ba/F3 stable cells [1] is ≤ 200 nM; on Ba/F3 stable cells [2], 200 to 1000 nM; on Ba/F3 stable cells [3] it was 200 to 1000 nM; on Ba/F3 stable cells [4] it was 200 to 1000 nM; at Ba/F3 stable cells [5], 200 to 1000 nM; at Ba/F3 stable cells [6], ≤ 200 nM.

Regarding `C=CC(=O)N1CC(c2cc3c(Nc4ccc(F)c(Cl)c4)ncnc3cc2OC)C1` [Compound 6, 1-(3-(4-((3-chloro-4-fluorophenyl)amino)-7-methoxyquinazolin-6-yl)azetidin-1-yl)prop-2-en-1-one], the EC50 on Ba/F3 stable cells [1] is ≤ 200 nM; on Ba/F3 stable cells [2], 200 to 1000 nM; on Ba/F3 stable cells [3], ≤ 200 nM; at Ba/F3 stable cells [4], 200 to 1000 nM; on Ba/F3 stable cells [5], ≤ 200 nM; at Ba/F3 stable cells [6], ≤ 200 nM.

For the compound `C=CC(=O)N1CC(c2cc3c(Nc4ccc(Cl)c5ccccc45)ncnc3cc2OC)C1` [Compound 7, 1-(3-(4-((4-chloronaphthalen-1-yl)amino)-7-methoxyquinazolin-6-yl)azetidin-1-yl)prop-2-en-1-one], the half-maximal effective concentration (EC50) on Ba/F3 stable cells [1] was 200 to 1000 nM; at Ba/F3 stable cells [2], > 1000 nM; on Ba/F3 stable cells [3] it was > 1000 nM; on Ba/F3 stable cells [4] it was ≤ 200 nM; on Ba/F3 stable cells [5], 200 to 1000 nM; on Ba/F3 stable cells [6], ≤ 200 nM.

Consider `C=CC(=O)N1CC(c2ccc3ncnc(Nc4ccc(Cl)c(Cl)c4F)c3c2)C1` [Compound 8, 1-(3-(4-((3,4-dichloro-2-fluorophenyl)amino)quinazolin-6-yl)azetidin-1-yl)prop-2-en-1-one], for which the concentration giving a half-maximal response (EC50) was 200 to 1000 nM on Ba/F3 stable cells [1]; 200 to 1000 nM at Ba/F3 stable cells [2]; 200 to 1000 nM on Ba/F3 stable cells [3]; > 1000 nM on Ba/F3 stable cells [4]; 200 to 1000 nM on Ba/F3 stable cells [5]; ≤ 200 nM at Ba/F3 stable cells [6].

In the case of `C=CC(=O)N1CCC(c2ccc3ncnc(Nc4ccc(Cl)c(Cl)c4F)c3c2)CC1` [Compound 9, 1-(4-(4-((3,4-dichloro-2-fluorophenyl)amino)quinazolin-6-yl)piperidin-1-yl)prop-2-en-1-one], the EC50 is > 1000 nM on Ba/F3 stable cells [1]; > 1000 nM at Ba/F3 stable cells [2]; 200 to 1000 nM on Ba/F3 stable cells [3]; > 1000 nM on Ba/F3 stable cells [4]; > 1000 nM on Ba/F3 stable cells [5]; ≤ 200 nM on Ba/F3 stable cells [6].

`C=CC(=O)N1CCC(c2cc3c(Nc4ccc(Cl)c(Cl)c4F)ncnc3cc2OC)CC1` [Compound 10, 1-(4-(4-((3,4-dichloro-2-fluorophenyl)amino)-7-methoxyquinazolin-6-yl)piperidin-1-yl)prop-2-en-1-one]: the 50% effective concentration (EC50) is ≤ 200 nM on Ba/F3 stable cells [1]; 200 to 1000 nM at Ba/F3 stable cells [2]; 200 to 1000 nM at Ba/F3 stable cells [3]; > 1000 nM at Ba/F3 stable cells [4]; 200 to 1000 nM on Ba/F3 stable cells [5]; ≤ 200 nM at Ba/F3 stable cells [6].

As to `C=CC(=O)N1CC(c2cc3c(Nc4ccc5[nH]ccc5c4)ncnc3cc2OC)C1` [Compound 11, 1-(3-(4-((1H-indol-5-yl)amino)-7-methoxyquinazolin-6-yl)azetidin-1-yl)prop-2-en-1-one], the EC50 was ≤ 200 nM on Ba/F3 stable cells [1]; 200 to 1000 nM at Ba/F3 stable cells [2]; 200 to 1000 nM at Ba/F3 stable cells [3]; > 1000 nM on Ba/F3 stable cells [4]; ≤ 200 nM on Ba/F3 stable cells [5]; ≤ 200 nM on Ba/F3 stable cells [6].

With `C=CC(=O)N1CC(c2cc3c(Nc4ccc5c(c4)CCN5)ncnc3cc2OC)C1` [Compound 12, 1-(3-(4-(indolin-5-ylamino)-7-methoxyquinazolin-6-yl)azetidin-1-yl)prop-2-en-1-one], the half-maximal effective concentration (EC50) at Ba/F3 stable cells [1], at Ba/F3 stable cells [2], at Ba/F3 stable cells [3], at Ba/F3 stable cells [4], on Ba/F3 stable cells [5] and at Ba/F3 stable cells [6] was > 1000 nM each time.

Take `C=CC(=O)N1CC(c2cc3c(NCc4ccc(F)cc4)ncnc3cc2OC)C1` [Compound 13, 1-(3-(4-((4-fluorobenzyl)amino)-7-methoxyquinazolin-6-yl)azetidin-1-yl)prop-2-en-1-one]: the EC50 is 200 to 1000 nM at Ba/F3 stable cells [1]; > 1000 nM at Ba/F3 stable cells [2]; > 1000 nM at Ba/F3 stable cells [3]; > 1000 nM at Ba/F3 stable cells [4]; 200 to 1000 nM at Ba/F3 stable cells [5]; ≤ 200 nM on Ba/F3 stable cells [6].

For `C=CC(=O)N1CC(c2cc3c(Nc4ccc(F)c5ccccc45)ncnc3cc2OC)C1` [Compound 14, 1-(3-(4-((4-fluoronaphthalen-1-yl)amino)-7-methoxyquinazolin-6-yl)azetidin-1-yl)prop-2-en-1-one], the concentration for a half-maximal effect (EC50) on Ba/F3 stable cells [1] is ≤ 200 nM; at Ba/F3 stable cells [2] it was > 1000 nM; at Ba/F3 stable cells [3], > 1000 nM; on Ba/F3 stable cells [4], ≤ 200 nM; on Ba/F3 stable cells [5], ≤ 200 nM; at Ba/F3 stable cells [6], ≤ 200 nM.

At Ba/F3 stable cells [6], `C=CC(=O)N1CC(c2cc3c(Nc4ccc(Cl)c(Cl)c4F)ncnc3cc2O[C@H]2CCOC2)C1` [Compound 24, (S)-1-(3-(4-((3,4-dichloro-2-fluorophenyl)amino)-7-((tetrahydrofuran-3-yl)oxy)quinazolin-6-yl)azetidin-1-yl)prop-2-en-1-one] registered a concentration for a half-maximal effect (EC50) of 200 to 1000 nM.

Take `C=CC(=O)N1CCC(Oc2cc3c(Nc4ccc(Cl)c(Cl)c4F)ncnc3cc2OC)CC1` [Compound 133, 1-(4-((4-((3,4-dichloro-2-fluorophenyl)amino)-7-methoxyquinazolin-6-yl)oxy)piperidin-1-yl)prop-2-en-1-one]: the 50% effective concentration (EC50) at Ba/F3 stable cells [3] is ≤ 200 nM.

Values taken from US20250243171A1, “QUINAZOLINE COMPOUNDS FOR TREATMENT OF DISEASE” (Arthrosi Therapeutics, Inc., priority 2021, published 2025).
